# Laboratory results published in US5116995A, “Carbazole compounds” (Taisho Pharmaceutical Co., Ltd., priority 1990, dated 1992).
# Read-outs that look alike come from different tables or passages of the source.
# Assays:
# [1] = biological target: sigma receptor (Rattus norvegicus, UniProt Q9R0C9); test: biochemical
# [2] = biological target: phencyclidine receptor; test: Receptor Binding Test: [3H]phencyclidine binding, rat whole brain membranes; design: species or system rat (male Wistar); conditions: rat whole brain membrane, 5 mM Tris-HCl pH 7.7, 25° C., 2 hours
# Description: 32, page 820 (1987), respectively.
# [3] = biological target: D2 receptor (Rattus norvegicus, UniProt P61169); test: Receptor Binding Test: (-)-[3H]sulpiride binding, rat striatal membranes
# Sequence of D2 receptor (Rattus norvegicus, UniProt P61169) (P61169 whole entry): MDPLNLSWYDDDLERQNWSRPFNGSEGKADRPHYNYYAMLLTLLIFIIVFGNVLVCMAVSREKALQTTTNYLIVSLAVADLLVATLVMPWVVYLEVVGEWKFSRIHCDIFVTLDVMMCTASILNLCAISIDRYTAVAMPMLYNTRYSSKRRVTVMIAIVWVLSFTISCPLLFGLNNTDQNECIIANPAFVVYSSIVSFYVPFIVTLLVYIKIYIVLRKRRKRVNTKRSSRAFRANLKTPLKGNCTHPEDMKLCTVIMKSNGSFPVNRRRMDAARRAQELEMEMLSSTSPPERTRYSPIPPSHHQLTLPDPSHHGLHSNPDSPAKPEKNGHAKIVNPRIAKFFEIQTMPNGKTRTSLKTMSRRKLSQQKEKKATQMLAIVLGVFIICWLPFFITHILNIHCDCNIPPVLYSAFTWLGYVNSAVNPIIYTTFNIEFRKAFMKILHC
# [4] = test system: methamphetamine induced hyperlocomotion; test: inhibition of Methamphetamine induced Hyperlocomotion; type: in vivo, mouse (male ICR); conditions: mice, test drug 50 mg/kg i.p., 35 min before methamphetamine 1 mg/kg i.p.; measured for 30 min from 15 min later; **P < 0.01 (Dunnett's test)
# Method: Thirty male ICR mice weighing 20 to 35 g were used for each group (5 animals per test, and 6 tests). Mice were placed in the measuring cages, adapted for 60 minutes, and given intraperitoneally the test drugs in Table 1 suspended in 5% gum arabic solution in a dose of 50 mg/kg (0.1 ml/10 g of the body weight). Thirty-five minutes later, methamphetamine dissolved in physiological saline solution was given intraperitoneally in a dose of 1 mg/kg. Fifteen minutes later, the locomotor content was measured for 30 minutes using an Animex apparatus. Control group was given 5% gum arabic only in a similar manner, and […] for measurement. Results are expressed as percentage to control group in Table 2.
# [5] = biological target: D2 receptor; conditions: rimcazole value from literature (vol. 155, page 345 (1988)), [3H]spiporone binding; cited from earlier work
# [6] = test system: sigma receptor; conditions: cited from earlier work
# [7] = biological target: phencyclidine receptor; conditions: rimcazole value from literature (vol. 155, page 345 (1988)); cited from earlier work
# Sequence of sigma receptor (Rattus norvegicus, UniProt Q9R0C9) (Q9R0C9 whole entry): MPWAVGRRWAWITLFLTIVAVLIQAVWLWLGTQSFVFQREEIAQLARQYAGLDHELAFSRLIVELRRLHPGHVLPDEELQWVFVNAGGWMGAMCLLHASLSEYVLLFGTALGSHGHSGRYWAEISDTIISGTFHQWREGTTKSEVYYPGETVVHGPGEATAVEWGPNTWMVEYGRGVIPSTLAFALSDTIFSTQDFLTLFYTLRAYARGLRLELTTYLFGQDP
IC50 [1],IC50 [2],IC50 [3],SMILES,"locomotor count, % to control group [4]",IC50 [5],affinity and specificity for sigma receptor ([6]; prior art statement),"IC50 ([6]; rimcazole value from literature (vol. 155, page 345 (1988)))",IC50 [7]
1020 ± 131 nM,> 10 µM,23.2 µM,"CCCN(CCC)Cc1cccc2[nH]c3c(C)ccc(C)c3c12.Cl [Test drug B, 5,8-dimethyl-4-(di-n-propylaminomethyl)carbazole hydrochloride]",46.6%,–,–,–,–
–,–,–,C[C@@H]1CN(CCCn2c3ccccc3c3ccccc32)C[C@H](C)N1 [Rimcazole],51.4%,86 µM,not sufficient,1460 ± 235 nM,> 2 mM
891 ± 12.8 nM,> 10 µM,44.3 µM,"CCCN(CCC)Cc1cccc2[nH]c3ccccc3c12.Cl [Test drug A, 4-(di-n-propylaminomethyl)carbazole hydrochloride]",39.7%,–,–,–,–
4.8 ± 1 nM,> 10 µM,14.3 µM,"CCCN(CCC)CCc1cccc2[nH]c3c(C)ccc(C)c3c12.Cl [Test drug C, 5,8-dimethyl-4-(2-di-n-propylaminoethyl)carbazole hydrochloride]",35.3%,–,–,–,–
24.3 ± 2.9 nM,–,–,"CCCN1CCCC(c2cccc(O)c2)C1 (single isomer, unassigned) [3-PPP, 3-(3-hydroxy-phenyl)-N-n-propylpiperidine, reference compound]",–,–,–,–,–
